Experimental data: patent publication US20220306695A1, “COMPSTATIN ANALOGUES AND THEIR MEDICAL USES” (priority 2019, published 2022)
Like-named read-outs stand apart in the source and are kept apart here. Starred links: 1 amine or outer side, 2 acyl side, 3 side chain; linkers in the order of their positions; H or OH if unused. Positions of bridges follow the written chain, without caps; N, C: chain ends. Non-standard residues stand in square brackets, D forms with d. Residues, ends and D or L forms follow the SMILES beside them. Groups on a side chain read outwards from the residue. *: point of attachment. Trp(1-Me) = Cn1cc(C[C@H](N)C(=O)O)c2ccccc21; Abu(4-yl) = O=C([C@H](CC[*:3])N[*:1])[*:2]; C18 diacid = O=C(O)CCCCCCCCCCCCCCCCC(=O)*; γGlu = O=C(O)[C@H](CCC(=O)[*:2])N[*:1]; AEEA = NCCOCCOCC(=O)O; Sar = CNCC(=O)O

Tests used:
[1] = system: classical complement pathway; experiment: In vitro haemolysis assay (inhibition of classical complement pathway); assay type: cell-based, human; settings: Table 3; human serum, sensitized sheep red blood cells; read-out: IC50[nM], in vitro analysis of inhibition of hemolysis
In short: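 Serially diluted compound (9 points) was preincubated 15 min at room temperature with diluted human serum, titrated per batch to give 70-90% maximal haemolysis, in Tris/casein buffer pH 7.4 with Mg2+/Ca2+. Antibody-sensitized sheep erythrocytes were then added for 30 min at 37° C, and the reaction was stopped with EDTA. Haemolysis was read at A405, with IC50 from 4PL fit.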

[2] = Solubility test at 10 mg/mL (visual inspection and light scattering); assay type: physicochemical
[3] = target: T1, Human C3 (Homo sapiens, UniProt P01024); experiment: Affinity measurement by surface plasmon resonance (SPR) with immobilized C3; assay type: binding; settings: Table 7; immobilized C3, 25° C., pH 7.4
T1 construct: purchased Complement tech A1 13c (so in the source)

[4] = in vivo; parameters: species or system Cynomolgus monkeys (Macaca fascicularis); settings: male, cynomolgus monkey, sc, 1840 nmol/kg; for half-life: t½
In short: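 Healthy male cynomolgus monkeys dosed once subcutaneously at 1840 nmol/kg in 20 mM phosphate pH 7.5 with mannitol. Serum sampled pre-dose to 120 h and total drug measured by SPE and LC-MS/MS. Terminal half-life calculated non-compartmentally as ln(2)/λz from the terminal log-linear phase.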

[5] = assay type: physicochemical; settings: 50 mg/mL peptide; for Covalent oligomer content after 14 days 40° C. (%), F1 / Purity after 14 days 40° C. (%), F1: F1: 20 mM phosphate pH 5.5; for Covalent oligomer content after 14 days 40° C. (%), F1 / Covalent oligomer content after 14 days 40° C. (%), F2: denaturing SEC; for Purity after 14 days 40° C. (%), F1 / Purity after 14 days 40° C. (%), F2 / Purity after 14 days 40° C. (%), F3: normalized purity (HPLC)
In short: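 Compstatin analogues with cystathionine or disulfide bridge held at 50 mg/mL in 20 mM phosphate pH 5.5, 6.5 or 7.5 and stored 14 days at 40 °C. At 0, 7 and 14 days, samples diluted to 2 mg/mL; purity by reverse-phase HPLC (220 nm) and covalent oligomer content by denaturing SEC (215 nm), from integrated chromatograms.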

[6] = target: Human C3 (human, UniProt P01024 23-1663); experiment: cell-based or functional assay
Chain of Human C3 (human, UniProt P01024 23-1663) (P01024 23-1663 limits assumed): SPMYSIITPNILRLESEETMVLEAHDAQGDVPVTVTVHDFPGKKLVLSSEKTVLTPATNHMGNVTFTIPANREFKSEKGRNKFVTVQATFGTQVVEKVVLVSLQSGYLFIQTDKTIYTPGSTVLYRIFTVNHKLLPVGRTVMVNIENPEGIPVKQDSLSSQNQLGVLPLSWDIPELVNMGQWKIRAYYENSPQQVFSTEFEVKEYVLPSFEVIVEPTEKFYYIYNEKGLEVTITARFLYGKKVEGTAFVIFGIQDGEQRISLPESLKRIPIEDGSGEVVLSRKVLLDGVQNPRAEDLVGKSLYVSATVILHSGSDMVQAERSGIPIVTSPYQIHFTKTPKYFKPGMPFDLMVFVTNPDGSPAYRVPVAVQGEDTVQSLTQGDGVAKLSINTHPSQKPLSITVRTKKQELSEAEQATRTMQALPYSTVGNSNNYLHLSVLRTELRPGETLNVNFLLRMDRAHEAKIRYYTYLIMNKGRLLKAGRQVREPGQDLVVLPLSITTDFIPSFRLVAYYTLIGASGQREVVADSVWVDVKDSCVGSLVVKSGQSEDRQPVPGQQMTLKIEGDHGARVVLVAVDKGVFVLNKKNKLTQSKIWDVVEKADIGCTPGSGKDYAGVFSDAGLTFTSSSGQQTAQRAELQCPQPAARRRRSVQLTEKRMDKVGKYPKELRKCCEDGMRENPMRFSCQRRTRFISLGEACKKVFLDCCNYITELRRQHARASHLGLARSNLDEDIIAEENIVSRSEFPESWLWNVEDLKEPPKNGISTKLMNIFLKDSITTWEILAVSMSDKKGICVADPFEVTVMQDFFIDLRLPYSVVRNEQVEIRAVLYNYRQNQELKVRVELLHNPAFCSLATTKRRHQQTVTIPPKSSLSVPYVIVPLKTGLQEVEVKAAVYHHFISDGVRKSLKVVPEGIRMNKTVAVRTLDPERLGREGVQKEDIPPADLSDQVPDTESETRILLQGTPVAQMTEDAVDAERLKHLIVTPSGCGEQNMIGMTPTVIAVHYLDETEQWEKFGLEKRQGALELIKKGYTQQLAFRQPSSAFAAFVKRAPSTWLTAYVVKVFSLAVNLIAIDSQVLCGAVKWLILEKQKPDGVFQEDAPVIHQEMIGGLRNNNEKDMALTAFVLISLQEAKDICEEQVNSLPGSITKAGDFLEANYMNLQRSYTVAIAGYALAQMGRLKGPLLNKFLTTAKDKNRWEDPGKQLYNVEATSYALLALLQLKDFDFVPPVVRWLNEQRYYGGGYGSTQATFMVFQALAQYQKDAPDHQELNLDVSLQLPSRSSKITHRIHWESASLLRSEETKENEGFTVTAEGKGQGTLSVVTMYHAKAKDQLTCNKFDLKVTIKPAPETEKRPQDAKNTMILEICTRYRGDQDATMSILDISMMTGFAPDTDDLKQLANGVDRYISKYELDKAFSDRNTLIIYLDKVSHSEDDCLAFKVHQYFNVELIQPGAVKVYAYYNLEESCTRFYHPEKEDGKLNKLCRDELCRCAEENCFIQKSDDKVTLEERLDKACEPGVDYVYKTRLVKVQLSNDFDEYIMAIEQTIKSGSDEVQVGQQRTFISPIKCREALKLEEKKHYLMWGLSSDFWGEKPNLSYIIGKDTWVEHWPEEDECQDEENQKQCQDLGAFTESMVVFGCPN

CC[C@H](C)[C@@H]1NC(=O)[C@@H](NC(=O)[C@H](Cc2ccc(O)cc2)NC(=O)[C@H](CCC(=O)O)NC(=O)[C@H](CO)NC(C)=O)CSSC[C@@H](C(=O)N(C)CC(=O)N[C@@H](CCC(=O)O)C(=O)NCC(=O)N[C@@H](C)C(=O)N[C@@H](CCCCNC(=O)COCCOCCNC(=O)CC[C@H](NC(=O)COCCOCCNC(=O)CNC(=O)CC[C@H](NC(=O)CCCCCCCCCCCCCCCCC(=O)O)C(=O)O)C(=O)O)C(N)=O)NC(=O)[C@H](CCCNC(=N)N)NC(=O)[C@H](Cc2c[nH]cn2)NC(=O)[C@H](CCC(=O)O)NC(=O)CNC(=O)[C@H](Cc2c[nH]c3ccccc23)NC(=O)[C@H](CC(=O)O)NC(=O)[C@H](CCC(N)=O)NC(=O)[C@H](Cc2cn(C)c3ccccc23)NC1=O [Compound 118] (Ac-SEYCI[Trp(1-Me)]QDWGEHRC[Sar]EGAK([AEEA-γGlu-AEEA-Gly-γGlu-C18 diacid])-NH2; disulfide 4-14)
IC50 [1]: < 100 nM
Solubility, Condition 1 Acetate pH 4 ([2]; 10 mg/mL compound in 100 mM acetate pH 4): − (denotes lack of solubility at the given condition, as UV absorbance at 340 nm exceeds 0.1 AU and/or it is visibly turbid or contains particles.)
Solubility, Condition 2 Acetate pH 5 ([2]; 10 mg/mL compound in 100 mM acetate pH 5): + (denotes solubility at the given condition, as determined by UV absorbance being less than 0.1 AU at 340 nm and the sample being clear when manually inspected.)
Solubility, Condition 3 Phosphate pH 6 ([2]; 10 mg/mL compound in 100 mM phosphate pH 6): + (denotes solubility at the given condition, as determined by UV absorbance being less than 0.1 AU at 340 nm and the sample being clear when manually inspected.)
Solubility, Condition 4 Phosphate pH 7 ([2]; 10 mg/mL compound in 100 mM phosphate pH 7): + (denotes solubility at the given condition, as determined by UV absorbance being less than 0.1 AU at 340 nm and the sample being clear when manually inspected.)
Solubility, Condition 5 Phosphate pH 7.5 ([2]; 10 mg/mL compound in 100 mM phosphate pH 7.5): + (denotes solubility at the given condition, as determined by UV absorbance being less than 0.1 AU at 340 nm and the sample being clear when manually inspected.)
Kd [3]: 0.011 µM
t½ [4]: 155 h
half-life [4]: 78.7 h

CC[C@H](C)[C@@H]1NC(=O)[C@@H](NC(=O)[C@H](Cc2ccccc2)NC(=O)[C@H](CCC(=O)O)NC(=O)[C@H](CO)NC(C)=O)CSSC[C@@H](C(=O)N(C)CC(=O)N[C@@H](CCC(=O)O)C(=O)NCC(=O)N[C@@H](CCC(=O)O)C(=O)NCCOCCOCC(=O)NCCOCCOCC(=O)N[C@@H](CCCCNC(=O)CC[C@H](NC(=O)CNC(=O)CC[C@H](NC(=O)CCCCCCCCCCCCCCCCC(=O)O)C(=O)O)C(=O)O)C(N)=O)NC(=O)[C@H](CCCNC(=N)N)NC(=O)[C@H](Cc2c[nH]cn2)NC(=O)[C@H](CCC(=O)O)NC(=O)CNC(=O)[C@H](Cc2c[nH]c3ccccc23)NC(=O)[C@H](CC(=O)O)NC(=O)[C@H](CCC(N)=O)NC(=O)[C@H](Cc2cn(C)c3ccccc23)NC1=O [Compound 123] (Ac-SEFCI[Trp(1-Me)]QDWGEHRC[Sar]EGE[AEEA][AEEA]K([γGlu-Gly-γGlu-C18 diacid])-NH2; disulfide 4-14)
IC50 [1]: < 100 nM
Kd [3]: 0.011 µM
half-life [4]: 105 h
Covalent oligomer content after 14 days 40° C. (%), F1 [5]: 52%
Purity after 14 days 40° C. (%), F1 [5]: 56%
Covalent oligomer content after 14 days 40° C. (%), F2 ([5]; F2: 20 mM phosphate pH 6.5): 48%
Purity after 14 days 40° C. (%), F2 ([5]; F2: 20 mM phosphate pH 6.5): 54%
Covalent oligomer content after 14 days 40° C. (%), F2 ([5]; F3: 20 mM phosphate pH 7.5): 45%
Purity after 14 days 40° C. (%), F3 ([5]; F3: 20 mM phosphate pH 7.5): 54%

CC[C@H](C)[C@@H]1NC(=O)[C@@H](NC(=O)[C@H](Cc2ccccc2)NC(=O)[C@H](CCC(=O)O)NC(=O)[C@H](CO)NC(C)=O)CSCC[C@@H](C(=O)N[C@H](C(=O)N[C@@H](CCC(=O)O)C(=O)NCC(=O)N[C@@H](CCC(=O)O)C(=O)NCCOCCOCC(=O)N[C@@H](CCC(=O)O)C(=O)N[C@@H](CO)C(=O)N[C@@H](CCCCNC(=O)CC[C@H](NC(=O)CCCCCCCCCCCCCCCCC(=O)O)C(=O)O)C(N)=O)[C@@H](C)O)NC(=O)[C@H](CCCNC(=N)N)NC(=O)[C@H](Cc2c[nH]cn2)NC(=O)[C@H](CCC(=O)O)NC(=O)CNC(=O)[C@H](Cc2c[nH]c3ccccc23)NC(=O)[C@H](CC(=O)O)NC(=O)[C@H](CCC(N)=O)NC(=O)[C@H](Cc2cn(C)c3ccccc23)NC1=O [Compound 148, Ac-SEFA(1)I[1-Me-Trp]QDWGEHRhC(1)TEGE[Peg3]ES-K([17-carboxy-heptadecanoyl][γGlu])-NH2] (Ac-SEFCI[Trp(1-Me)]QDWGEHR[Abu(4-yl)]TEGE[AEEA]ESK([γGlu-C18 diacid])-NH2; thioether 4-14)
IC50 [1]: < 100 nM
Kd [3]: 0.0034 µM
half-life [4]: 129 h
Covalent oligomer content after 14 days 40° C. (%), F1 [5]: 0.7%
Purity after 14 days 40° C. (%), F1 [5]: 93%
Covalent oligomer content after 14 days 40° C. (%), F2 ([5]; F2: 20 mM phosphate pH 6.5): 0.0%
Purity after 14 days 40° C. (%), F2 ([5]; F2: 20 mM phosphate pH 6.5): 97%
Covalent oligomer content after 14 days 40° C. (%), F2 ([5]; F3: 20 mM phosphate pH 7.5): 0.1%
Purity after 14 days 40° C. (%), F3 ([5]; F3: 20 mM phosphate pH 7.5): 97%

B1: Compound C (peptide)
peptide: Ac-ESSAICVWQDWGEHRCT-NH2
modifications: disulfide 6-16
SMILES: CC[C@H](C)[C@H](NC(=O)[C@H](C)NC(=O)[C@H](CO)NC(=O)[C@H](CO)NC(=O)[C@H](CCC(=O)O)NC(C)=O)C(=O)N[C@H]1CSSC[C@@H](C(=O)N[C@H](C(N)=O)[C@@H](C)O)NC(=O)[C@H](CCCNC(=N)N)NC(=O)[C@H](Cc2c[nH]cn2)NC(=O)[C@H](CCC(=O)O)NC(=O)CNC(=O)[C@H](Cc2c[nH]c3ccccc23)NC(=O)[C@H](CC(=O)O)NC(=O)[C@H](CCC(N)=O)NC(=O)[C@H](Cc2c[nH]c3ccccc23)NC(=O)[C@H](C(C)C)NC1=O
CP hemolysis IC50 [6]: 0.3 µM

B2: Compound B (peptide)
peptide: Ac-ICVWQDWGSHRCT-NH2
modifications: disulfide 2-12
SMILES: CC[C@H](C)[C@H](NC(C)=O)C(=O)N[C@H]1CSSC[C@@H](C(=O)N[C@H](C(N)=O)[C@@H](C)O)NC(=O)[C@H](CCCNC(=N)N)NC(=O)[C@H](Cc2c[nH]cn2)NC(=O)[C@H](CO)NC(=O)CNC(=O)[C@H](Cc2c[nH]c3ccccc23)NC(=O)[C@H](CC(=O)O)NC(=O)[C@H](CCC(N)=O)NC(=O)[C@H](Cc2c[nH]c3ccccc23)NC(=O)[C@H](C(C)C)NC1=O
CP hemolysis IC50 [6]: 0.36 µM

B3: Compound F (peptide)
peptide: Ac-ICVWQDWGEHSCT-NH2
modifications: disulfide 2-12
SMILES: CC[C@H](C)[C@H](NC(C)=O)C(=O)N[C@H]1CSSC[C@@H](C(=O)N[C@H](C(N)=O)[C@@H](C)O)NC(=O)[C@H](CO)NC(=O)[C@H](Cc2c[nH]cn2)NC(=O)[C@H](CCC(=O)O)NC(=O)CNC(=O)[C@H](Cc2c[nH]c3ccccc23)NC(=O)[C@H](CC(=O)O)NC(=O)[C@H](CCC(N)=O)NC(=O)[C@H](Cc2c[nH]c3ccccc23)NC(=O)[C@H](C(C)C)NC1=O
CP hemolysis IC50 [6]: 0.54 µM

B4: Compound E (peptide)
peptide: Ac-ICVWQDWGAHSCT-NH2
modifications: disulfide 2-12
SMILES: CC[C@H](C)[C@H](NC(C)=O)C(=O)N[C@H]1CSSC[C@@H](C(=O)N[C@H](C(N)=O)[C@@H](C)O)NC(=O)[C@H](CO)NC(=O)[C@H](Cc2c[nH]cn2)NC(=O)[C@H](C)NC(=O)CNC(=O)[C@H](Cc2c[nH]c3ccccc23)NC(=O)[C@H](CC(=O)O)NC(=O)[C@H](CCC(N)=O)NC(=O)[C@H](Cc2c[nH]c3ccccc23)NC(=O)[C@H](C(C)C)NC1=O
CP hemolysis IC50 [6]: > 1 µM
